According to ChEMBL document CHEMBL4229451, “Recent advances in peptidomimetics antagonists targeting estrogen receptor α-coactivator interaction in cancer therapy” (Bioorg Med Chem Lett, 2018):
Starred links: 1 amine or outer side, 2 acyl side, 3 side chain; linkers in the order of their positions; H or OH if unused. Positions of bridges follow the written chain, without caps; N, C: chain ends. Non-standard residues stand in square brackets, D forms with d. Residues, ends and D or L forms follow the SMILES beside them. αMeNle(4R-Me,6-ylidene) = C[C@H](CC=[*:3])C[C@](C)(N[*:1])C(=O)[*:2]; X3 = C[C@@H](CC=[*:3])C[C@](C)(N[*:1])C(=O)[*:2]; X2 = O=C([C@@H](CC[*:3])N[*:1])[*:2]; S5 = C=CCCC[C@](C)(N)C(=O)O

What was measured:
[1] = target: Estrogen receptor beta (Homo sapiens, UniProt Q92731, C334S/C369S/C481S); assay: (§1) Binding affinity to recombinant human ERbeta LBD (259 to 498 residues) C334S/C369S/C481S triple mutant expressed in Escherichia coli BL21(DE3) by surface plasmon resonance method
Sequence of Estrogen receptor beta (Homo sapiens, UniProt Q92731, C334S/C369S/C481S) (Q92731 whole entry C334S/C369S/C481S, the tested form may be a part): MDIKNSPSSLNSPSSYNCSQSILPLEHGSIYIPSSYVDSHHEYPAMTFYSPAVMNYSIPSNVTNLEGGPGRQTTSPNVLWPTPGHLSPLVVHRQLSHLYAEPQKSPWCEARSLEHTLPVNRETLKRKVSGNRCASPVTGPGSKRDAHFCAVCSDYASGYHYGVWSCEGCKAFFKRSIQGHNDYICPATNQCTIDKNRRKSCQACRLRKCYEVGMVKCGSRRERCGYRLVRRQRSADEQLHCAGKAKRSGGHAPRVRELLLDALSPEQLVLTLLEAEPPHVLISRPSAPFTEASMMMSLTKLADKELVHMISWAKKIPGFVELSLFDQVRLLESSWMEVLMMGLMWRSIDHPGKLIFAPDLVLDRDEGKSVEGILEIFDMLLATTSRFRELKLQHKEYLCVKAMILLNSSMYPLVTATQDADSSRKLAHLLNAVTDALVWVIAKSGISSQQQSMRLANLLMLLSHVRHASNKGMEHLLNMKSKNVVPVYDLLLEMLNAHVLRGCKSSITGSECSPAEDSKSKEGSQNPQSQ

[2] = system: Estrogen receptor beta (Homo sapiens), Q92731 [C334S,C369S,C481S]; assay: as §1
Sequence of Estrogen receptor beta (Homo sapiens), Q92731 [C334S,C369S,C481S] (Q92731 whole entry C334S/C369S/C481S, the tested form may be a part): as above

[3] = target: T1, Estrogen receptor (Homo sapiens, UniProt P03372); assay: (§2) Binding affinity to recombinant human ERalpha LBD (301 to 553 residues) expressed in Escherichia coli BL21(DE3) by surface plasmon resonance method
T1 sequence (P03372 whole entry): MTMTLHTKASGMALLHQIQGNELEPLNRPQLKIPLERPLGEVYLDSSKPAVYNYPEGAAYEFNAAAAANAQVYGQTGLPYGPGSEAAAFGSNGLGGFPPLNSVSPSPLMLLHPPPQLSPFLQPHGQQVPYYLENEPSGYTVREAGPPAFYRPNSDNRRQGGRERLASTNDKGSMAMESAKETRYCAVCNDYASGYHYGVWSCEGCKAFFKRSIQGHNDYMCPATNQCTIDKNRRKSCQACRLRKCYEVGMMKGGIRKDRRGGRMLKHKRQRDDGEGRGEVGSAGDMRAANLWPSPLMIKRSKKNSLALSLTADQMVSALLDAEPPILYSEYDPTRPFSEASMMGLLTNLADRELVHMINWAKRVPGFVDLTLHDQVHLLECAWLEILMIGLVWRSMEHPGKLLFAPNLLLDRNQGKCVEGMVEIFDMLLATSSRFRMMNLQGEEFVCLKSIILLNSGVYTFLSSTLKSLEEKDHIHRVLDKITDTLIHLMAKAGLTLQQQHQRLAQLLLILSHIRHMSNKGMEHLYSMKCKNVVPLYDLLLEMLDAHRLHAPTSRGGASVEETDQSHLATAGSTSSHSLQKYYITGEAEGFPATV

[4] = target: T2, Estrogen receptor (Homo sapiens) (UniProt P03372); assay: as §2
T2 sequence (whole entry): T1 sequence (P03372 whole entry)

[5] = target: T1, Estrogen receptor; assay: Displacement of 5-iodoacetamidofluorescein-labelled SRC3 from C417-biotin labelled ERalpha (unknown origin) (304 to 554 residues) after 45 mins by TR-FRET assay
[6] = target: T1, Estrogen receptor; assay: Binding affinity to recombinant N-terminal His6-tagged ERalpha LBD (unknown origin) (299 to 554 residues) by surface plasmon resonance method
[7] = target: T1, Estrogen receptor; assay: Binding affinity to recombinant human ERalpha LBD (301 to 553 residues) expressed in Escherichia coli BL21(DE3) using FITC-labelled compound after 1 hr by fluorescence polarization method
[8] = target: T1, Estrogen receptor; assay: Antagonist activity at full length recombinant human ERalpha expressed in baculovirus expression system assessed as inhibition of estradiol-induced Euphorium-labelled LTERHKILHRLLQEGSPSD peptide recruitment after 1.5 hrs by time-resolved fluorescence assay
[9] = target: Estrogen receptor beta (Homo sapiens, UniProt Q92731); assay: Antagonist activity at full length recombinant human ERbeta expressed in baculovirus expression system assessed as inhibition of estradiol-induced Euphorium-labelled QAQQKSLLQQLLTE peptide recruitment after 1.5 hrs by time-resolved fluorescence assay
Sequence of Estrogen receptor beta (Homo sapiens, UniProt Q92731) (Q92731 whole entry): as the sequence (Q92731 whole entry C334S/C369S/C481S, the tested form may be a part) above, with S334C, S369C, S481C counted along it

## CC[C@H](C)[C@@H]1NC(=O)[C@@](C)(NC(=O)[C@H](Cc2cnc[nH]2)NC(C)=O)CCC/C=C\CCC[C@@](C)(C(=O)N[C@@H](CC(C)C)C(=O)N[C@@H](CC(C)C)C(=O)N[C@@H](CCC(N)=O)C(=O)N[C@@H](CC(=O)O)C(=O)N[C@@H](CO)C(N)=O)NC(=O)[C@H](Cc2cnc[nH]2)NC(=O)[C@H](CC(C)C)NC1=O (Ac-H[S5]ILH[S5]LLQDS-NH2; staple (Z) 2-6)
[1]
  Kd: 1990 nM
[2]
  Kdiss: 0.509 s⁻¹
[3]
  Kd: 674 nM
[4]
  Kdiss: 0.256 s⁻¹

## CC(=O)N[C@@H](Cc1cnc[nH]1)C(=O)N[C@@H](CCCCN)C(=O)N[C@@]1(C)CCC/C=C\C[C@@H](C)C[C@@](C)(C(=O)N[C@@H](CC(C)C)C(=O)N[C@@H](CCC(N)=O)C(=O)N[C@@H](CC(=O)O)C(=O)N[C@@H](CO)C(N)=O)NC(=O)[C@H](CCCNC(=N)N)NC(=O)[C@H](Cc2cnc[nH]2)NC(=O)[C@H](CC(C)C)NC1=O (Ac-HK[S5]LHR[αMeNle(4R-Me,6-ylidene)]LQDS-NH2; staple (Z) 3-7)
[5]
  IC50: 1800 nM

## C=CCCC[C@](C)(NC(=O)[C@H](CCCCN)NC(=O)[C@H](Cc1cnc[nH]1)NC(C)=O)C(=O)N[C@@H](CC(C)C)C(=O)N[C@@H](Cc1cnc[nH]1)C(=O)N[C@@H](CCC(N)=O)C(=O)N[C@@](C)(CCCC=C)C(=O)N[C@@H](CC(C)C)C(=O)N[C@@H](CCC(N)=O)C(=O)N[C@@H](CC(=O)O)C(=O)N[C@@H](CO)C(N)=O (Ac-HK[S5]LHQ[S5]LQDS-NH2)
[5]
  IC50: 1200 nM

## CC(=O)N[C@@H](CCCNC(=N)N)C(=O)N[C@@H](CCCNC(=N)N)C(=O)N[C@@H](CCCNC(=N)N)C(=O)N[C@@H](CCCNC(=N)N)C(=O)N[C@@H](CCCCN)C(=O)N[C@@]1(C)CCC/C=C\CCC[C@@](C)(C(=O)N[C@@H](CC(C)C)C(=O)N[C@@H](CCC(N)=O)C(=O)N[C@@H](CC(=O)O)C(=O)N[C@@H](CO)C(N)=O)NC(=O)[C@H](CCCNC(=N)N)NC(=O)[C@H](Cc2cnc[nH]2)NC(=O)[C@H](CC(C)C)NC1=O (Ac-RRRRK[S5]LHR[S5]LQDS-NH2; staple (Z) 6-10)
[6]
  Kd: 19 nM

## CC[C@H](C)[C@H](NC(=O)[C@H](CCCCN)NC(=O)[C@]1(C)CCC/C=C\CCC[C@](C)(NC(C)=O)C(=O)N[C@@H](CCCCN)C(=O)N[C@@H](CCC(=O)O)C(=O)N[C@@H](CCCCN)C(=O)N1)C(=O)N[C@@H](CC(C)C)C(=O)N[C@@H](Cc1cnc[nH]1)C(=O)N[C@@H](CCC(N)=O)C(=O)N[C@@H](CC(C)C)C(=O)N[C@@H](CC(C)C)C(=O)N[C@@H](CCC(N)=O)C(=O)N[C@@H](CC(=O)O)C(=O)N[C@@H](CO)C(N)=O (Ac-[S5]KEK[S5]KILHQLLQDS-NH2; staple (Z) 1-5)
[1]
  Kd: 8300 nM
[3]
  Kd: 8000 nM

## CC[C@H](C)[C@H](NC(=O)[C@H](CCCCN)NC(=O)[C@H](Cc1cnc[nH]1)NC(C)=O)C(=O)N[C@@H](CC(C)C)C(=O)N[C@@H](Cc1cnc[nH]1)C(=O)N[C@@H](CCC(N)=O)C(=O)N[C@@H](CC(C)C)C(=O)N[C@@H](CC(C)C)C(=O)N[C@@H](CCC(N)=O)C(=O)N[C@@]1(C)CCC/C=C\CCC[C@@](C)(C(=O)N[C@H](C(N)=O)C(C)C)NC(=O)[C@H](CO)NC(=O)[C@H](CO)NC(=O)[C@H](CO)NC1=O (Ac-HKILHQLLQ[S5]SSS[S5]V-NH2; staple (Z) 10-14)
[1]
  Kd: 2800 nM
[3]
  Kd: 4000 nM

## CC[C@H](C)[C@H](NC(=O)[C@H](Cc1ccc(O)cc1)NC(=O)[C@@H]1C[C@H](O)CN1C(=O)[C@H](C)NC(=O)[C@H](CC(C)C)NC(=O)CCCCCNC(=O)[C@H](CCC(N)=O)NC(=O)[C@H](CC(C)C)NC(=O)[C@H](CC(C)C)NC(=O)[C@H](CCCNC(=N)N)NC(=O)[C@@H]1CNC(=O)[C@@H](NC(=O)[C@@H](N)CCCNC(=N)N)CC(=O)N[C@@H]([C@@H](C)CC)C(=O)N[C@@H](CC(C)C)C(=O)N1)C(N)=O
[7]
  Kd: 30 nM

## CC[C@H](C)[C@H](NC(=O)[C@H](CCCCN)NC(=O)[C@H](Cc1cnc[nH]1)NC(C)=O)C(=O)N[C@@H](CC(C)C)C(=O)N[C@@H](Cc1cnc[nH]1)C(=O)N[C@@]1(C)CCC/C=C\CCC[C@@](C)(C(=O)N[C@@H](CO)C(N)=O)NC(=O)[C@H](CCC(N)=O)NC(=O)[C@H](CC(C)C)NC(=O)[C@H](CC(C)C)NC1=O (Ac-HKILH[S5]LLQ[S5]S-NH2; staple (Z) 6-10)
[1]
  Kd: > 15000 nM
[3]
  Kd: > 15000 nM

## CC[C@H](C)[C@@H]1NC(=O)[C@H](NC(=O)[C@@H](N)CCCNC(=N)N)CCSC[C@@H](C(=O)N[C@@H](CCCNC(=N)N)C(=O)N[C@@H](CC(C)C)C(=O)N[C@@H](CC(C)C)C(=O)N[C@@H](CCC(N)=O)C(N)=O)NC(=O)[C@H](CC(C)C)NC1=O (H-R[X2]ILCRLLQ-NH2; thioether 2-5)
[8]
  Ki: 6.9 nM
[9]
  Ki: 64 nM

## CC[C@H](C)[C@H](NC(=O)[C@H](CCCCN)NC(=O)[C@H](Cc1cnc[nH]1)NC(=O)[C@H](CCCCN)NC(=O)[C@H](CCC(=O)O)NC(C)=O)C(=O)N[C@@H](CC(C)C)C(=O)N[C@@]1(C)CCC/C=C\CCC[C@@](C)(C(=O)N[C@@H](CC(=O)O)C(=O)N[C@@H](CO)C(N)=O)NC(=O)[C@H](CC(C)C)NC(=O)[C@H](CC(C)C)NC(=O)[C@H](CCCNC(=N)N)NC1=O (Ac-EKHKIL[S5]RLL[S5]DS-NH2; staple (Z) 7-11)
[1]
  Kd: 155 nM
[2]
  Kdiss: 0.155 s⁻¹
[3]
  Kd: 75 nM
[4]
  Kdiss: 0.129 s⁻¹

## CC[C@H](C)[C@@H]1NC(=O)C[C@H](NC(=O)[C@@H](N)CCCNC(=N)N)C(=O)NC[C@@H](C(=O)N[C@@H](CCCNC(=N)N)C(=O)N[C@@H](CC(C)C)C(=O)N[C@@H](CC(C)C)C(=O)N[C@@H](CCC(N)=O)C(N)=O)NC(=O)[C@H](CC(C)C)NC1=O
[7]
  Kd: 85 nM

## CC(=O)N[C@@H](Cc1cnc[nH]1)C(=O)N[C@@H](CCCCN)C(=O)N[C@@]1(C)C[C@H](C)C/C=C\CCC[C@@](C)(C(=O)N[C@@H](CC(C)C)C(=O)N[C@@H](CCC(N)=O)C(=O)N[C@@H](CC(=O)O)C(=O)N[C@@H](CO)C(N)=O)NC(=O)[C@H](CCCNC(=N)N)NC(=O)[C@H](Cc2cnc[nH]2)NC(=O)[C@H](CC(C)C)NC1=O (Ac-HK[αMeNle(4R-Me,6-ylidene)]LHR[S5]LQDS-NH2; staple (Z) 3-7)
[5]
  IC50: 96 nM

## CC[C@H](C)[C@@H]1NC(=O)[C@H](NC(=O)[C@@H](N)CCCNC(=N)N)CSSC[C@H](C(=O)N[C@@H](CCCNC(=N)N)C(=O)N[C@@H](CC(C)C)C(=O)N[C@@H](CC(C)C)C(=O)N[C@@H](CCC(N)=O)C(N)=O)NC(=O)[C@H](CC(C)C)NC1=O
[8]
  Ki: 11 nM

## CC[C@H](C)[C@@H]1NC(=O)[C@H](NC(=O)[C@@H](N)CCCNC(=N)N)CSSC[C@H](C(=O)N[C@@H](CCCNC(=N)N)C(=O)N[C@@H](CC(C)(C)C)C(=O)N[C@@H](CC(C)C)C(=O)N[C@@H](CCC(N)=O)C(N)=O)NC(=O)[C@H](CC(C)C)NC1=O
[8]
  Ki: 0.07 nM
[9]
  Ki: 1.2 nM

## CC(=O)N[C@@H](Cc1cnc[nH]1)C(=O)N[C@@H](CCCCN)C(=O)N[C@@]1(C)CCC/C=C\CCC[C@@](C)(C(=O)N[C@@H](CC(C)C)C(=O)N[C@@H](CCC(N)=O)C(=O)N[C@@H](CC(=O)O)C(=O)N[C@@H](CO)C(N)=O)NC(=O)[C@H](CCC(N)=O)NC(=O)[C@H](Cc2cnc[nH]2)NC(=O)[C@H](CC(C)C)NC1=O (Ac-HK[S5]LHQ[S5]LQDS-NH2; staple (Z) 3-7)
[5]
  IC50: 760 nM
[1]
  Kd: 632 nM
[2]
  Kdiss: 0.339 s⁻¹
[3]
  Kd: 352 nM
[4]
  Kdiss: 0.193 s⁻¹

## CC[C@H](C)[C@@H]1NC(=O)[C@H](NC(=O)[C@@H](N)CCCCN)CSSC[C@H](C(=O)N[C@@H](CCCNC(=N)N)C(=O)N[C@@H](CC(C)C)C(=O)N[C@@H](CC(C)C)C(=O)N[C@@H](CCC(N)=O)C(N)=O)NC(=O)[C@H](CC(C)C)NC1=O (H-K[dC]IL[dC]RLLQ-NH2; disulfide 2-5)
[8]
  Ki: 25 nM

## CC(=O)N[C@@H](Cc1cnc[nH]1)C(=O)N[C@@H](CCCCN)C(=O)N[C@@]1(C)C[C@@H](C)C/C=C\CCC[C@@](C)(C(=O)N[C@@H](CC(C)C)C(=O)N[C@@H](CCC(N)=O)C(=O)N[C@@H](CC(=O)O)C(=O)N[C@@H](CO)C(N)=O)NC(=O)[C@H](CCCNC(=N)N)NC(=O)[C@H](Cc2cnc[nH]2)NC(=O)[C@H](CC(C)C)NC1=O (Ac-HK[X3]LHR[S5]LQDS-NH2; staple (Z) 3-7)
[5]
  IC50: 89 nM
